The record followed here is patent US20170042104A1, “SUGARCANE PROCESS” (E I DU PONT DE NEMOURS AND COMPANY, priority 2014, published 2017).

One data set deals with sugarcane plantlet. Put plainly: Storage of plantlets in Starcla tube seed structures after chemical treatment during regeneration; field survival. It counts as in vivo. To be noted: for Survival: survival after 5 weeks of growth in field. An excerpt:
The effect of time, temperature, and light on storage of plantlets was studied, in combination with the effect of chemical treatment. Seed structures consisted of 4″ Starcla™ tubes. Tubes were extruded from a resin, such as a blend of polybutylene succinate, polylactic acid, and starch, using a 1½″ Davis Standard-extruder. Tubing was made with ⅝″ I.D. and cut into 4″ length tubes. The seeds were assembled by heating the bottom of the tube and pressing into a crescent shape where there is 2-3 millimeter gap between both sides. Two grams of potting media were added to each tube. One sugarcane plantlet was placed inside the tube structure ensuring the roots were placed in the soil and the shoot remained in the airspace. Two milliliters of water were added to the structure and then the top was prepared by heating and forming a crescent shape with a 2-3 millimeter gap between both sides.
Two types of chemical treatments were used during regeneration. The first treatment was paclobutrazol (paclo), which was introduced into the media for weeks 3 and 4 of plantlet formation. The solution contained 2% sucrose, ½ strength MS, 100 ppm cefotaxime, and 0.75 mg/L paclobutrazol. The second treatment was abscisic acid (ABA) which was introduced the day before the plantlets were removed from regeneration. The ABA treatment solution contained 1 mg/L ABA, 10 g/L sucrose, and MS solution.
The tubes were stored in partially closed zip bags with 25 tubes per unit. After storage the seeds were planted. No irrigation was used during the time the plantlets were growing in the field. The survival rates of the plantlets were measured after 5 weeks of growth.

Data set [1] relates to regenerable plant tissue (RPT). In words: Culturing of regenerable plant tissue in media with BAP. Conditions: BAP present in the culture. It counts as cell-based, sugarcane. An excerpt: General procedures have been previously outlined (International Publication No. WO 2013/096531, incorporated by reference herein). In summary, half-explants were trimmed of excess stalk tissue, leaving behind the proliferating buds areas. Trimmed tissue was placed into a temporary immersion chamber for liquid culture, or back onto solid media. In the case of temporary immersion, the chamber was placed in a growth chamber, or room, with 30 uE/m2/sec of PAR light, and was hooked to tubing connected to pumps to allow standard immersion cycling. Media (MS+3% sucrose+[…]+3 mg/L paclobutrazol) was changed weekly. Harvest occurred 2-20 weeks after initiation, depending on whether the tissue is grown on solid or liquid media, and the overall mass of the regenerable plant tissue (RPT).
The RPT was subdivided into additional growth chambers or plates as needed. Multiple rounds of growth cycles were possible.

Data set [2] is described as follows: Accelerated degradation of cellulosic composites buried in soil. The data set is classed as physicochemical. Conditions: buried in soil 1 month, 30° C., approximately 50% humidity; confidence interval 95%. The protocol:
Cellulosic pulp was mixed with various materials to study the influence of the materials in the degradation of them in soil. To evaluate the different materials developed with cellulose, an accelerated degradation protocol was developed wherein samples with different compositions were buried in a recipient containing soil, and kept for 1 month in an incubator at 30° C. and approximately 50% humidity, representing field conditions. The cellulose content was measured using thermogravimetric analyses before and after the test to evaluate degradation, indicating cellulose degradation in field.
Different materials were tested, including a residue from the pulp and paper industry containing cellulosic fibers of long and short nature; inorganic fillers, mainly TiO2 and pigments. The final structure contained more than 90% of this cellulose mixture. To this mixture was added polyvinyl alcohol, up to 5% in weight, ionomer of ethylene acid copolymer, up to 5% in weight, used in the packaging industry, cationic starch, up to 5% in weight, more likely 1% to accelerate degradation, while promoting the adherence of the adjacent fibers of cellulose, urea to accelerate the degradation and nutrition of plants up to 10% in weight, more likely 5%, and AKD (alkyl ketene dimer) in a starch solution to serve as moisture barrier by changing the hydrophobicity of cellulose, more likely between 1-10 ppm.

Another data set has as its system sugarcane. Put plainly: Plantlet formation with Na silicate added to MS media; field test. Conditions: 5 mM added to MS media in weeks 3 and 4; observational evidence. It counts as in vivo. The protocol:
Plantlet formation (production of plants with shoots and roots), also called regeneration, was initiated by transferring the RPT to media without hormones. RPT fragments were made using scalpels, chopping tools, or by large scale dicing of material by mechanical means. Fragment size was determined by end usage: RPT fragments for growth in arrays were approximately 1-10 mm cubes, for growth in temporary immersion chambers somewhat larger fragments 5-20 mm were used, or the RPT was left unfragmented. The media used was MS+3% sucrose. Plantlet formation occurred at 26° C. in 60 uE/m2/sec of PAR light (16 hours on and 8 hours off), and if temporary immersion was used media was cycled over the fragments for 1 minute every 2 hours. Media was replaced weekly and was supplemented with 100 ppm carbenicillin, 0.2% PPM (Plant Preservative Mixture™, Plant Cell Technology Inc. Washington, D.C.), and/or 100 ppm cefotaxime as needed. Supplemental carbon dioxide (1500 ppm) was used in some growth cycles, but is not essential. After 3-4 weeks the MS concentration was decreased to ½ strength to encourage rooting, although not required.
The addition of 5 mM Na silicate to the MS media was made in weeks 3 and 4. […] Silicates accumulated in sugarcane tissues conferring anti-predatory, anti-fungal properties. […]

[3] abbreviates: Conditions N, O: 0 weeks, not stored.

In the case of `CC(C)(C)[C@@H](O)[C@@H](Cc1ccc(Cl)cc1)n1cncn1` (racemic) [Paclo, paclobutrazol], the Survival in the data set on sugarcane plantlet (Condition A: storage 8 weeks, temperature 10, light 0) turned out to be 0%; with sugarcane plantlet (Condition B: storage 8 weeks, temperature 30, light 200), 88%; with sugarcane plantlet (Condition E: storage 4 weeks, temperature 10, light 5), 0%; with sugarcane plantlet (Condition F: storage 4 weeks, temperature 30, light 0) it was 0%; in the data set on sugarcane plantlet (Condition J: storage 2 weeks, temperature 10, light 0) it was 0%; in the data set with sugarcane plantlet (Condition K: storage 2 weeks, temperature 30, light 200) it was 64%. Moreover, in the data set with sugarcane plantlet (setting [3]), the Survival was determined as 16%. The “Survival rate compared between treatments” value in the data set on sugarcane plantlet (storage experiment of Table 3 overall) is reported as “higher survival rate than the ABA treatment”.

As for `CC1=CC(=O)CC(C)(C)[C@@]1(O)/C=C/C(C)=C\C(=O)O` [ABA, abscisic acid], the Survival in the data set with sugarcane plantlet (Condition C: storage 8 weeks, temperature 10, light 5) amounted to 0%; in the data set with sugarcane plantlet (Condition D: storage 8 weeks, temperature 30, light 0), 0%; in the data set with sugarcane plantlet (Condition G: storage 4 weeks, temperature 10, light 0), 0%; in the data set with sugarcane plantlet (Condition H: storage 4 weeks, temperature 30, light 200), 50%; in the data set on sugarcane plantlet (Condition L: storage 2 weeks, temperature 10, light 5), 0%; in the data set on sugarcane plantlet (Condition M: storage 2 weeks, temperature 30, light 0), 0%. For the same compound, in the data set with sugarcane plantlet (setting [3]), the Survival was determined as 12%.

Take `c1ccc(CNc2ncnc3nc[nH]c23)cc1` [BAP, 6-Benzylaminopurine]: the Root formation result in data set [1] is “No root formation is detected”.

For the compound `NC(N)=O` [urea], the “Influence on the degradation of cellulosic compounds” value in data set [2] is recorded as “high influence”.

As to Na silicate, the “Growth rate and root production in a field test” value in the data set with sugarcane is “improves growth rate and root production”.
